Laboratory results: patent publication US6875421B2, “Method for detecting chitin-containing organisms” (Albert Einstein College of Medicine of Yeshiva University, priority 1997, dated 2005)

Key:
deer ticks = test: Visualizing deer ticks under long range UV light; design: species or system deer tick
Description: Use as a visualizing agent for deer ticks was investigated as well. Live deer ticks were gathered from a wooded area in Westchester County, N.Y. and sprayed with a 1% solution of Calcofluor white. The ticks were placed on a white cotton sheet and exposed to long range UV light from a portable UV lamp.

[1] = Toxicity: solution spread on dorsum of hands of volunteers; format: in vivo, human; details: 1% solution on dorsum of hands, 12 hours continuously
Protocol: The 1% solution was also spread on the dorsum of four hands of volunteers and allowed to remain continuously for 12 hours before being washed off.

P. capitis nits = test: Visualizing nits on human hair under UV light; details: hair with attached nits dipped into 1% solution for two minutes, examined wet under UV light
Description: Human hair with attached P. capitis nits obtained as a waste product after barbering were obtained and dipped into a 1% solution of calcofluor white for two minutes. The hair was removed and examined wet under UV light. […] Identification was easy, specific, and totally unambiguous.

O=S(=O)(O)c1cc(Nc2nc(Nc3ccccc3)nc(N(CCO)CCO)n2)ccc1/C=C/c1ccc(Nc2nc(Nc3ccccc3)nc(N(CCO)CCO)n2)cc1S(=O)(=O)O [calcofluor white]
visualization of deer ticks (fluorescence) under long range UV light (deer ticks; live ticks sprayed with 1% solution, on white cotton sheet, portable UV lamp): easily visualized as brightly fluorescent objects | fluorescence of deer ticks after subsequent spray (deer ticks; ticks without autofluorescence, then sprayed and exposed to ultraviolet light): intense fluorescence | physical reactions such as pruritus, erythema, induration or discoloration [1]: did not provoke any physical reactions | physical sensation on skin [1]: caused no physical sensation | visualization of nits (fluorescence) under UV light (P. capitis nits): clearly seen as brightly fluorescent white ovoid bodies
